Results reported in patent US12673077B2, “Anthelmintic probiotic compositions and methods” (priority 2014, dated 2026).
Read-outs that look alike come from different tables or passages of the source.

B1: Cry5B: Bacillus thuringiensis crystal (Cry) protein Cry5B, purified protein (sequence FIG. 2, SEQ ID NO:1) (protein, listed as Bacillus thuringiensis)
chain: MATINELYPVPYNVLAHPIKEVDDPYSWSNLLKGIQEGWEEWGKTGQKKLFEDHLTIAWNLYKTGKLDYFALTKASISLIGFIPGAEAAVPFINMFVDFVWPKLFGANTEGKDQQLFNAIMDAVNKMVDNKFLSYNLSTLNKTIEGLQGNLGLFQNAIQVAICQGSTPERVNFDQNCTPCNPNQPCKDDLDRVASRFDTANSQFTQHLPEFKNPWSDENSTQEFKRTSVELTLPMYTTVATLHLLLYEGYIEFMTKWNFHNEQYLNNLKVELQQLIHSYSETVRTSFLQFLPTLNNRSKSSVNAYNRYVRNMTVNCLDIAATWPTFDTHNYHQGGKLDLTRIILSDTAGPIEEYTTGDKTSGPEHSNITPNNILDTPSPTYQHSFVSVDSIVYSRKELQQLDIATYSTNNSNNCHPYGLRLSYTDGSRYDYGDNQPDFTTSNNNYCHNSYTAPITLVNARHLYNAKGSLQNVESLVVSTVNGGSGSCICDAWINYLRPPQTSKNESRPDQKINVLYPITETVNKGTGGNLGVISAYVPMELVPENVIGDVNADTKLPLTQLKGFPFEKYGSEYNNRGISLVREWINGNNAVKLSNSQSVGIQITNQTKQKYEIRCRYASKGDNNVYFNVDLSENPFRNSISFGSTESSVVGVQGENGKYILKSITTVEIPAGSFYVHITNQGSSDLFLDRIEFVPKIQFQFCDNNNLHCDCNNPVDTDCTFCCVCTSLTDCDCNNPRGLDCTLCCQVENQLPSFVTLTDLQNITTQVNALVASSEHDTLATDVSDYEIEEVVLKVDALSGEVFGKEKKALRKLVNHTKRLSKARNLLIGGNFDNLDAWYRGRNVVNVSDHELFKSDHVLLPPPTLYSSYMFQKVEESKLKANTRYTVSGFIAHAEDLEIVVSRYGQEVKKVVQVPYGEAFPLTSRGAICCPPRSTSNGKPADPHFFSYSIDVGTLDVEANPGIELGLRIVERTGMARVSNLEIREDRPLKKNELRNVQRAARNWRTAYDQERAEVTALIQPVLNQINALYENEDWNGAIRSGVSYHDLEAIVLPTLPKLNHWFMSDMLGEQGSILAQFQEALDRAYTQLEESTILHNGHFTTDAANWTIEGDAHHAILEDGRRVLRLPDWSSSVSQTIEIENFDPDKEYQLVFHAQGEGTVSLQHGEEGEYVETHPHKSANFTTSHRQGVTFETNKVTVEITSEDGEFLVDHIALVEAPLPTDDQSSDGNTTSNTNSNTSMNNNQ
modifications: pesticidal crystal (Cry)

Key:
[1] = tested on: A. ceylanicum; conditions: cited from earlier work; for % Parasite reduction: hamsters
[2] = tested on: Ancylostoma ceylanicum hookworms; experiment: A. ceylanicum hookworm curative experiment in hamsters (worm burdens, fecal egg counts); format: in vivo; conditions: single 10 mg/kg (71 nmol/kg) Cry5B dose per os
Procedure: (A) Intestinal hookworm burdens in nine hamsters following treatment with PY79-vector or PY79-Cry5B (10 mg/kg Cry5B) (error bars in all panels show standard errors). The average worm burdens were 18.6±2.6 and 1.3±0.3 for PY79-vector and PY79-Cry5B, respectively. (B) Fecal egg counts on day −1, day +1, and day +3 relative to the day of treatment. The actual egg counts for PY79-vector and PY79-Cry5B were 965±193 and 1,044±99, respectively, on day −1, 1,055±230 and 94±60, respectively, on day +1, and 1,055±227 and 100±42, respectively, on day +3. EPG, eggs per gram of feces. (C) In vivo dose-response experiment with 12 hamsters. […]
For in vivo curative experiments, male hamsters were infected per os with 150 A. ceylanicum infectious larvae. On day 17 postinoculation (p.i.), a fecal sample was collected from each hamster, and the number of eggs was counted using the modified McMaster technique (13). […] The hamsters were sacrificed on day 22 p.i., and intestinal parasite burdens were determined as described previously (14). The one-tailed Mann-Whitney test was performed to compare the two groups for significance in the experiment using a dose of 10 mg/kg of body weight (data were calculated and plotted using Prism 5 [GraphPad Software Inc., La Jolla, CA]). […]

Molecule	% Parasite reduction ([1]; 10 mg/kg) [%]	further results
CCCSc1ccc2nc(NC(=O)OC)[nH]c2c1 [Albendazole, albendazole]	–	% Parasite reduction ([1]; 1.25 mg/kg (4.7 μmol/kg)): 88%
c1ccc([C@H]2CN3CCSC3=N2)cc1 [Levamisole, levamisole]	60	–
CN1CCCN=C1/C=C/c1cccs1 [Pyrantel, pyrantel]	87	–
C/C(=N/c1ccc(/N=C/c2ccc(/C=N/c3ccc(/N=C(/C)N(C)C)cc3)cc2)cc1)N(C)C [Tribendimidine, tribendimidine]	75	–
B1	–	% reduction of hookworm burden relative to control [2]: 93%; % reduction of hookworm burden ([1]; purified protein 10 mg/kg, previously published data (ref 14)): 65%
